Literature values as cited in US20260334526A1 (NICOVENTURES TRADING LIMITED, priority 2022, published 2026).

Experiments:
[1] = for solubility: fats, alcohols, water
[2] = nicotine solution at pH=6 relative to pH 8.1; perfusion cell; Adrian et al.

Row | SMILES | solubility [1] | chemical stability ([1]; when isolated) | reduction of diffusion rate across human buccal tissue (factor) [2]
1 | CC(/C=C/C=C(C)/C=C/C(=O)O)=C\C=C\C=C(C)\C=C\C=C(C)\C=C\C(=O)O (stereo in doubt) [norbixin, (2E,4E,6E,8E,10E,12E,14E,16E,18E)-4,8,13,17-tetramethylicosa-2,4,6,8,10,12,14,16,18-nonaenedioic acid] | water-soluble | – | –
2 | COC(=O)/C=C/C(C)=C\C=C\C(C)=C\C=C\C=C(C)\C=C\C=C(C)\C=C\C(=O)O [bixin, (2E,4E,6E,8E,10E,12E,14E,16Z,18E)-20-methoxy-4,8,13,17-tetramethyl-20-oxoicosa-2,4,6,8,10,12,14,16,18-nonaenoic acid] | soluble in fats and alcohols but insoluble in water | chemically unstable when isolated | –
3 | CN1CCCC1c1cccnc1 (stereo not shown) [nicotine] | – | – | ~ 7
